By solubility is commonly meant the dissolved amount per volume that the medium holds.

Converted amounts (≈) assume the structure as drawn. Bounds are passed on as bounds.

For 2 compounds, solubility results are on record in patent US12152139B2, “Composition, film, optical filter, laminate, solid-state imaging element, image display device, and infrared sensor” (FUJIFILM Corporation, priority 2018, dated 2024).

The data set is described as follows: Solubility in propylene glycol methyl ether acetate. The conditions noted are these: organic solvent or mixture, thermodynamic from solid, at 25° C., read-out: solubility in propylene glycol methyl ether acetate (compound (1)). The format is physicochemical. The method, then:
<Measurement of Solubility of Near Infrared Absorbing Pigment and Compound (1)>
Under atmospheric pressure, 99 to 101 g of a sample (precisely weighed value is defined as X g) was added to 1 L of propylene glycol methyl ether acetate at 25° C., and the mixture was stirred for 30 minutes. Next, the mixture was allowed to stand for 5 minutes and filtered, and the […] was dried under reduced pressure at 80° C. for 2 hours and weighed precisely (precisely weighed value is defined as Y g). Solubility of the sample dissolved in propylene glycol methyl ether acetate was calculated from the following expression. Solubility (g/L)=X−Y <Method for Quantifying Amine Compound in Composition>

Consider `O=c1c2ccccc2[nH]c2cc3c(=O)c4ccccc4n(CCCCS(=O)(=O)O)c3cc12` [Example P3], for which the solubility at 30 min was not below 500 µg/mL.

For the compound `O=C1C(=C2C(O)=CC(N(c3ccc(S(=O)(=O)O)cc3)c3ccc(S(=O)(=O)O)cc3)C=C2O)C(O)=C1c1c(O)cc(N(c2ccc(S(=O)(=O)O)cc2)c2ccc(S(=O)(=O)O)cc2)cc1O` (centres unmarked) [Example P2], the solubility at 30 min was 100 to 500 µg/mL (≈ 105 to 524 µM).
